These results are taken from article PMC3974725, “A Random Sequential Mechanism of Aminoglycoside Acetylation by Mycobacterium tuberculosis Eis Protein” (PLoS ONE, 2014).

Assay [1] deals with T1, MtEis (Mycobacterium tuberculosis, UniProt P9WFK7). Briefly: Steady-state acetyltransferase assays (DTNB, absorbance at 412 nm), bisubstrate kinetic analysis. In kind it is biochemical.
Assay [2] addresses T1, MtEis. The note with it: cited from earlier work.

Like-named read-outs stand apart in the source and are kept apart here.

T1 sequence (P9WFK7 whole entry, looked up): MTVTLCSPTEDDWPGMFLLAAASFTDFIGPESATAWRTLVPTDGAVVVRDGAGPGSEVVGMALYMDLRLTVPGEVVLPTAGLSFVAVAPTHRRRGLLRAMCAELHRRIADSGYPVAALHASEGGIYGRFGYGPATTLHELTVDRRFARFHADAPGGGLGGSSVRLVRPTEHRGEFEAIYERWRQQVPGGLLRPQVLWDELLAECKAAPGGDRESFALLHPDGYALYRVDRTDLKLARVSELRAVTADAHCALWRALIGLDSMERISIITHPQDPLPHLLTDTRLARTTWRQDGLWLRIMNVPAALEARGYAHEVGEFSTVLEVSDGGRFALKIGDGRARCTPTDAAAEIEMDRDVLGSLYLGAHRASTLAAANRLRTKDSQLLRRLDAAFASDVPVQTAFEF

For `CC(=O)SCCNC(=O)CCNC(=O)[C@H](O)C(C)(C)COP(=O)(O)OP(=O)(O)OC[C@H]1O[C@@H](n2cnc3c(N)ncnc32)[C@H](O)[C@@H]1OP(=O)(O)O` [AcCoA, acetyl coenzyme A], the “K d,AcCoA(E) lower than that for AcCoA binding to Eis from M. smegmatis” value on MtEis [1] (MtEis versus M. smegmatis Eis value of ref 6) is listed as “about 4 fold”. Besides, the Kd was found to be 18 ± 14 µM on MtEis [1] (binding of AcCoA to free MtEis, read-out: K d,AcCoA(E)); 45 ± 37 µM on MtEis [1] (binding of AcCoA to the KAN bound enzyme, read-out: K d,AcCoA(AG•E)); 111 ± 62 µM at MtEis [1] (binding of AcCoA to the NEO bound enzyme, read-out: K d,AcCoA(AG•E)).
As to `NC[C@@H]1O[C@H](O[C@H]2[C@@H](O)[C@H](O[C@@H]3[C@@H](O)[C@H](N)C[C@H](N)[C@H]3O[C@H]3O[C@H](CN)[C@@H](O)[C@H](O)[C@H]3N)O[C@@H]2CO)[C@H](N)[C@@H](O)[C@@H]1O` [NEO, neomycin B], the “extent of acetylation by MtEis” value on MtEis [2] is given as “tri-acetylated”. Besides, the “higher affinity for the AcCoA bound enzyme than KAN” value at MtEis [1] (NEO versus KAN, K d,AG(AcCoA•E)) is “approximately 3 fold”. Also, the Kd was determined as 22 ± 17 µM at MtEis [1] (binding of AG to free enzyme, from thermodynamic cycle K d,AcCoA(E) K d,AG(AcCoA•E)/K d,AcCoA(AG•E), read-out: K d,AG(E)); 135 ± 53 µM at MtEis [1] (binding of AG to the AcCoA bound enzyme, simultaneous fit of KAN and NEO acetylation data, read-out: K d,AG(AcCoA•E)).
kanamycin A: the “extent of acetylation by MtEis” value at MtEis [2] is on record as “di-acetylated”. Moreover, the “k cat (microscopic rate constant of the acetylation step)” value on MtEis [1] (AG as substrate of MtEis, random sequential mechanism fit, Tris 50 mM, pH 8.0) worked out at 0.68 ± 0.15 s⁻¹.
